Source: patent publication US20230134843A1, “TREATMENT OF STEM CELL DEFICIENCY” (OSPEDALE SAN RAFFAELE S.R.L., priority 2020, published 2023)
Entries after “also recorded” stand apart in the source; their conditions may differ.

Legend:
[1] = tested on: γH2AX; assay: Western blot of γH2AX as senescence marker in corneal epithelium, disepithelization model (Example 1); type: in vivo, mice
Experimental: Eight-week-old C57BL6/N (Charles River, Calco, Italy) (WT mice, n=8) and B6.Cg-Tac1tm1Bbm/J (Jackson Laboratories, Bar Harbor, Me., USA) (TAC1-KO mice, n=8) male mice were used in all experiments. Each animal was anesthetized with intraperitoneal injection of tribromoethanol (250 mg/kg) and a topical anesthetic was applied to their ocular surface prior to the surgical procedure. Disepithelization was performed based on the model previously described, using a blunt spatula to scrap the entire corneal epithelium from limbus to limbus. After wounding, eyes were treated with ophthalmic moxifloxacin 1 time/day for 1 week to […]. Fourteen days after disepithelization mice were euthanized using carbon dioxide inhalation and subsequent cervical dislocation. Corneas were collected for immunostaining and western blot analysis. […]
For Western Blot analysis, corneal epithelium was isolated after 30 minutes of EDTA treatment (Sigma-Aldrich Corp., St. Louis, Mo., USA) at 37° C. […] Bands were quantified using Image Lab™ software (Version 6.0.1, Bio-Rad Laboratories, Hercules, Calif., USA).
The expression of p70 S6 Kinase (P70S6), phospho-p70 S6 Kinase (pP70S6), and phospho-histone 2-AX (γH2AX) was evaluated by Western Blot, as previously described in section 2.9. […] Bands were quantified using Image J software (National Institutes of Health, Bethesda, Md., USA).

[2] = molecular target: T1, NK1R (Mus musculus, UniProt P30548); assay: Epithelial wound closure by corneal fluorescein staining, stem cell deficiency model (Example 2); type: in vivo, mice
T1 construct: NK1R is expressed by both corneal epithelial and stem cell-like cells; from tissue; host or cells: cornea / ocular surface of live C57BL6/N mice (topical dosing in vivo)
T1 sequence (P30548 whole entry): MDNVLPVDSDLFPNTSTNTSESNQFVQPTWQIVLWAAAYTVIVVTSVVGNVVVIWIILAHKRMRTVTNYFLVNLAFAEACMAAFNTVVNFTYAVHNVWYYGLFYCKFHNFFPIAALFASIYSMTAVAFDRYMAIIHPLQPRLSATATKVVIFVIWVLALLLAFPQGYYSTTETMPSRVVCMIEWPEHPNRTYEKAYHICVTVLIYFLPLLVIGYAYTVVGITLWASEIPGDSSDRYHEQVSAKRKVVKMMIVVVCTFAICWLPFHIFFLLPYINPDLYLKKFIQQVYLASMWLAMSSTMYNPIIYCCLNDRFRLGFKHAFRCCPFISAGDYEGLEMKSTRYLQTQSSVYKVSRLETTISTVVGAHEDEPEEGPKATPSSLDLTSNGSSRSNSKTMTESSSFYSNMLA
Text: Eight-week-old male mice C57BL6/N (Charles River, Calco, Italy) (WT mice, n=18) and Tac1-deficient B6.Cg-Tac1tm1Bbm/J (Jackson Laboratories, Bar Harbor, Me., USA) (TAC1-KO mice, n=18) were used in all experiments. TAC1-KO mice are homozygous null for the Tac1 gene. […] The corneal thickness and transparency as well as the corneal nerve length are similar to C57BL/6 mice [Barbariga M, Rabiolo A, Fonteyne P, Bignami F, Rama P, Ferrari G. The effect of aging on nerve morphology and substance P expression in mouse and human corneas. Investig Ophthalmol Vis Sci 2018; 59:5329-35. https://doi.org/10.1167/iovs.18-24707.]. […]
Every day after disepithelization, in vivo corneal photographs were taken using a digital camera (EOS 30D; Canon, Tokyo, Japan) attached to a slit-lamp microscope (Photoslitmap 40 SL-P; Zeiss, Oberkochen, Germany) to assess corneal condition. Corneal opacity was evaluated using a grading score (from 0-4; 0=completely clear, 4=completely opaque) previously described [Yoeruek E, Deuter C, Gieselmann S, Saygili O, Spitzer M S, Tatar O, et al. Long-term visual acuity and its predictors after cataract surgery in patients with uveitis. […] The percentage of green fluorescent area on the total corneal area was evaluated by analyzing images by Image J software (National Institutes of Health, Bethesda, Md., USA).

C[C@@H](O[C@H]1OCCN(Cc2nc(=O)n(P(=O)(O)O)[nH]2)[C@H]1c1ccc(F)cc1)c1cc(C(F)(F)F)cc(C(F)(F)F)c1 [Fosaprepitant, [3-{[(2R,3S)-2-[(1R)-1-[3,5-bis(trifluoromethyl)phenyl]ethoxy]-3-(4-fluorophenyl)morpholin-4-yl]methyl}-5-oxo-2H-1,2,4-triazol-1-yl]phosphonic acid]
H2AX expression in comparison to WT (in words) ([1]; Fosaprepitant 10 mg/mL (WT-FOSA), western blot): decreased | decreased γH2AX expression in comparison to WT ([1]; Fosaprepitant 10 mg/mL topically four times a day for 14 days (WT-FOSA), p<0.05): 26% | wound closure compared to WT ([2]; Fosaprepitant 0.1 mg/mL (FOSA 0.1) topically 4 times/day for 16 days): did not show any improvement; also recorded: no improvement | wound closure rate compared to WT ([2]; Fosaprepitant 1 mg/mL (FOSA 1) topically 4 times/day for 16 days, from day five, p<0.05): significant improvement; also recorded: significant faster epithelial wound closure
